According to patent US7741479B2, “Urea inhibitors of MAP kinases” (Locus Pharmaceuticals, Inc., priority 2004, dated 2010):

Biological target: T1, p38 (Homo sapiens, UniProt Q16539)
T1 construct: made in house
Test: Protein Kinase Assay (33P incorporation from γ-[33P]ATP into GST-ATF-2 substrate)
Format: biochemical
Details: compound at 0.5 μM (noted beside the value in Table 1)
Method: Human non-activated p38 kinase (MW=43 kDa) was purified according to the protocol described herein. Chemicals were purchased from Calbiochem. Fluorescence characterizations were conducted using a Cary Eclipse (Varian Analytical Instruments, Walnut Creek, Calif.). Research-grade CM5 sensor chips and coupling reagents (N-ethyl-N′-dimethylaminopropylcarbodiimide (EDC) N-hydroxysuccinimide (NHS), and 1 M ethanolamine HCl, pH 8.5) were purchased from Biacore AB (Uppsala, Sweden). The biosensor analyses were conducted using a Biacore 3000 SPR instrument. The kinetic analyses were carried on a Molecular Devices spectrophotometer (Molecular Devices Corporation, CA, USA).
Protein Kinase Assay. The protein kinase activity of p38 was determined by measuring the incorporation of ^33P from γ-[^33P]ATP into the GST-ATF-2 substrate, amino acids 19-96 (Upstate, NY USA). […] Compounds were preincubated with 10 nM p38 for 20 min at 30° C.; the reactions were initiated by the addition of GST-ATF2 and ATP and incubated for 70 min at 30° C. before being stopped by the addition of 10 μL of 600 mM phosphoric acid. The phosphorylated substrate was captured on phosphocellulose 96-well plate (Millipore MAPHNOB 10), washed with 100 mM phosphoric acid, and counted in a BeckmenCoulter LS6500 liquid scintillation counter.

T1 sequence (Q16539 whole entry): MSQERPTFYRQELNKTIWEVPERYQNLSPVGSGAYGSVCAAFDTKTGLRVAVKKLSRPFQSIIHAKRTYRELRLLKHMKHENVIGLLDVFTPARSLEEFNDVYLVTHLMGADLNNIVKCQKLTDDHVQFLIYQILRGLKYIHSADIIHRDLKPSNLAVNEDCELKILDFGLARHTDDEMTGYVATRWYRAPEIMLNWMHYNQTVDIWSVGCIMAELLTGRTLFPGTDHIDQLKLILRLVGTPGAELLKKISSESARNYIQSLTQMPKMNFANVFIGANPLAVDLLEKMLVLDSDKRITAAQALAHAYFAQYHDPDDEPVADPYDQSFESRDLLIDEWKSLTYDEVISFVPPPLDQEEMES

Row | inhibition at 0.5 µM [%] | SMILES
1 | 51 to 76 | CC(C)(C)c1cc(NC(=O)Nc2ccc3ccccc3c2)c(N2CCS(=O)(=O)CC2)s1 [Example 27, 1-[5-tert-butyl-2-(1,1-dioxo-1λ^6-thiomorpholin-4-yl)thiophen-3-yl]-3-naphthalen-2-ylurea]

Same assay, conditions: compound at 10 μM

Row | SMILES | inhibition at 10 µM [%]
2 | CC(C)(C)c1cc(C(=O)N2CCS(=O)(=O)CC2)c(NC(=O)Nc2ccc(Cl)cc2)s1 [Example 1, 1-[5-tert-butyl-3-(1,1-dioxo-1λ^6-thiomorpholine-4-carbonyl)thiophen-2-yl]-3-(4-chlorophenyl)urea] | 76 to 100
3 | CC(C)(C)c1cc(C(=O)N2CCS(=O)(=O)CC2)c(NC(=O)Nc2cccc3ccccc23)s1 [Example 2, 1-[5-tert-butyl-3-(1,1-dioxo-1λ^6-thiomorpholine-4-carbonyl)thiophen-2-yl]-3-naphthalen-1-ylurea] | 76 to 100
4 | CC(C)(C)c1cc(CN2CCS(=O)(=O)CC2)c(NC(=O)Nc2ccc(Cl)cc2)s1 [Example 3, 1-[5-tert-butyl-3-(1,1-dioxo-1λ^6-thiomorpholin-4-ylmethyl)thiophen-2-yl]-3-(4-chlorophenyl)urea] | 76 to 100
5 | CC(C)(C)c1cc(C(=O)N2CCS(=O)(=O)CC2)c(NC(=O)Nc2ccc3ccccc3c2)s1 [Example 4, 1-[5-tert-butyl-3-(1,1-dioxo-1λ^6-thiomorpholine-4-carbonyl)thiophen-2-yl]-3-naphthalen-2-ylurea] | 76 to 100
6 | CC(C)(C)c1cc(CN2CCS(=O)(=O)CC2)c(NC(=O)Nc2cccc3ccccc23)s1 [Example 5, 1-[5-tert-butyl-3-(1,1-dioxo-1λ^6-thiomorpholin-4-ylmethyl)thiophen-2-yl]-3-naphthalen-1-ylurea] | 76 to 100
7 | CC(C)(C)c1cc(CN2CCS(=O)(=O)CC2)c(NC(=O)Nc2ccc3ccccc3c2)s1 [Example 6, 1-[5-tert-butyl-3-(1,1-dioxo-1λ^6-thiomorpholin-4-ylmethyl)thiophen-2-yl]-3-naphthalen-2-ylurea] | 76 to 100
8 | CC(C)(C)c1cc(NC(=O)Nc2ccc(Cl)cc2)n(CC(=O)N2CCS(=O)(=O)CC2)n1 [Example 7, 1-{5-tert-butyl-2-[2-(1,1-dioxo-1λ^6-thiomorpholin-4-yl)-2-oxoethyl]-2H-pyrazol-3-yl}-3-(4-chlorophenyl)urea] | 51 to 75
9 | CC(C)(C)c1cc(NC(=O)Nc2cccc3ccccc23)n(CC(=O)N2CCS(=O)(=O)CC2)n1 [Example 9, 1-{5-tert-butyl-2-[2-(1,1-dioxo-1λ^6-thiomorpholin-4-yl)-2-oxoethyl]-2H-pyrazol-3-yl}-3-naphthalen-1-ylurea] | 51 to 75
10 | CC(C)(C)c1cc(NC(=O)Nc2ccc(Cl)cc2)c(C(=O)N2CCS(=O)(=O)CC2)s1 [Example 10, 1-[5-tert-butyl-2-(1,1-dioxo-1λ^6-thiomorpholine-4-carbonyl)thiophen-3-yl]-3-(4-chlorophenyl)urea] | 76 to 100
11 | CC(C)(C)c1cc(NC(=O)Nc2cccc3ccccc23)c(C(=O)N2CCS(=O)(=O)CC2)s1 [Example 11, 1-[5-tert-butyl-2-(1,1-dioxo-1λ^6-thiomorpholine-4-carbonyl)thiophen-3-yl]-3-naphthalen-1-ylurea] | 76 to 100
12 | CC(C)(C)c1cc(NC(=O)Nc2ccc3ccccc3c2)c(C(=O)N2CCS(=O)(=O)CC2)s1 [Example 12, 1-[5-tert-butyl-2-(1,1-dioxo-1λ^6-thiomorpholine-4-carbonyl)thiophen-3-yl]-3-naphthalen-2-ylurea] | 76 to 100
13 | CC(C)(C)c1cc(NC(=O)Nc2ccc3ccccc3c2)c(CN2CCS(=O)(=O)CC2)s1 [Example 13, 1-[5-tert-butyl-2-(1,1-dioxo-1λ^6-thiomorpholin-4-ylmethyl)thiophen-3-yl]-3-naphthalen-2-ylurea] | 26 to 50
14 | CC(C)(C)c1cc(NC(=O)Nc2cccc3ccccc23)c(CN2CCS(=O)(=O)CC2)s1 [Example 14, 1-[5-tert-butyl-2-(1,1-dioxo-1λ^6-thiomorpholin-4-ylmethyl)thiophen-3-yl]-3-naphthalen-1-ylurea] | 0 to 25
15 | CC(C)(C)c1cc(NC(=O)Nc2ccc(Cl)cc2)c(CN2CCS(=O)(=O)CC2)s1 [Example 15, 1-[5-tert-butyl-2-(1,1-dioxo-1λ^6-thiomorpholin-4-ylmethyl)thiophen-3-yl]-3-(4-chlorophenyl)urea] | 51 to 75
16 | CC(C)(C)c1cc(C(=O)N2CCOCC2)c(NC(=O)Nc2cccc3ccccc23)s1 [Example 16, 1-[5-tert-butyl-3-(morpholine-4-carbonyl)thiophen-2-yl]-3-naphthalen-1-yl-urea] | 26 to 50
17 | CC(C)(C)c1cc(NC(=O)Nc2ccc(Cl)cc2)n(C(=O)N2CCS(=O)(=O)CC2)n1 [Example 17, 1-[5-tert-butyl-2-(1,1-dioxo-1λ^6-thiomorpholine-4-carbonyl)-2H-pyrazol-3-yl]-3-(4-chlorophenyl)urea] | 76 to 100
18 | CC(C)(C)c1cc(C(=O)N2CCSCC2)c(NC(=O)Nc2cccc3ccccc23)s1 [Example 18, 1-[5-tert-butyl-3-(thiomorpholine-4-carbonyl)thiophen-2-yl]-3-naphthalen-1-ylurea] | 51 to 75

Continued, values first:

Row | inhibition at 10 µM [%] | SMILES
19 | 51 to 75 | CC(C)(C)c1cc(CN2CCOCC2)c(NC(=O)Nc2cccc3ccccc23)s1 [Example 19, 1-(5-tert-butyl-3-morpholin-4-ylmethylthiophen-2-yl)-3-naphthalen-1-ylurea]
20 | 0 to 25 | CC(C)(C)c1cc(CN2CCSCC2)c(NC(=O)Nc2cccc3ccccc23)s1 [Example 20, 1-(5-tert-butyl-3-thiomorpholin-4-ylmethylthiophen-2-yl)-3-naphthalen-1-yl-urea]
21 | 76 to 100 | CC(C)(C)c1cc(NC(=O)Nc2cccc3ccccc23)n(C(=O)N2CCS(=O)(=O)CC2)n1 [Example 21, 1-[5-tert-butyl-2-(1,1-dioxo-1λ^6-thiomorpholine-4-carbonyl)-2H-pyrazol-3-yl]-3-naphthalen-1-ylurea]
22 | 26 to 50 | CC(C)(C)c1cc(C(=O)N2CC[S+]([O-])CC2)c(NC(=O)Nc2cccc3ccccc23)s1 [Example 22, 1-[5-tert-butyl-3-(1-oxo-1λ^4-thiomorpholine-4-carbonyl)thiophen-2-yl]-3-naphthalen-1-ylurea]
23 | 26 to 50 | CC(C)(C)c1cc(NC(=O)Nc2ccc3ccccc3c2)n(C(=O)N2CCS(=O)(=O)CC2)n1 [Example 23, 1-[5-tert-butyl-2-(1,1-dioxo-1λ^6-thiomorpholine-4-carbonyl)-2H-pyrazol-3-yl]-3-naphthalen-2-ylurea]
24 | 76 to 100 | CC(C)(C)c1nc(C(=O)N2CCS(=O)(=O)CC2)c(NC(=O)Nc2cccc3ccccc23)s1 [Example 25, 1-[2-tert-butyl-4-(1,1-dioxo-1λ^6-thiomorpholine-4-carbonyl)thiazol-5-yl]-3-naphthalen-1-ylurea]
25 | 51 to 75 | CC(C)(C)c1nc(C(=O)N2CCS(=O)(=O)CC2)c(NC(=O)Nc2ccc3ccccc3c2)s1 [Example 26, 1-[2-tert-butyl-4-(1,1-dioxo-1λ^6-thiomorpholine-4-carbonyl)thiazol-5-yl]-3-naphthalen-2-ylurea]
26 | 0 to 25 | CC(C)(C)c1cc(C(=O)N2CCS(=O)(=O)CC2)c(NC(=O)Nc2ccc(Oc3ccccc3)cc2)s1 [Example 28, 1-[5-tert-butyl-3-(1,1-dioxo-1λ^6-thiomorpholine-4-carbonyl)thiophen-2-yl]-3-(4-phenoxyphenyl)urea]
